Assay results reported in patent US20120108500A1, “Compositions and Methods for Modulating Immunodeficiency Virus Transcription” (priority 2010, published 2012).

Columns and labels:
[1] = system: HIV transcription in J-Lat A2 cells; test: cells; format: cell-based; details: for effect on TNFα-mediated activation of gene expression: phenelzine 100-3000 μM, DRB 0.3-10 μM
Procedure: Culhane et al. (2010) J Am Chem Soc 132: 3164-3176. To test the activity of this agent in HIV infection, J-Lat A2 cells were treated with increasing amounts of phenelzine or the CDK inhibitor 5,6-dichloro-1-β-D-ribofuranosyl-1H-benzimidazole (DRB), a known Tat inhibitor.
(§1) FIGS. 7A and 7B. LSD1/KDM1 is a potential drug target in HIV transcription. (A) J-Lat A2 cells were stimulated with 0.08 ng/ml of TNFα in the presence of increasing amounts of phenelzine (100, 300, 1000 or 3000 μM), DRB (0.3, 1, 3 or 10 μM) or dimethylsulfoxide (DMSO) as carrier control overnight. Numbers of GFP+ cells as well as propidium iodide (PI)-negative cells as a measure of intact cell viability were analyzed by flow cytometry. The percentage compared to DMSO-treated control cells was calculated. The average of two independent experiments is shown. (B) Purified resting primary CD4+ T cells were infected at a high multiplicity of infection (M.O.I.) with infectious HIV-NL4-3 luciferase reporter virus. Three days after infection, cells were stimulated with α-CD3 and α-CD28 antibodies in the presence of phenelzine (100, 300, or 1000 μM), DRB (1 or 10 μM) or DMSO overnight followed by analysis for luciferase activity and PI uptake.

[2] = system: J-Lat A2 cells; test: Cell viability of J-Lat A2 cells (propidium iodide-negative cells, flow cytometry); details: at the tested concentrations
Procedure: as §1

[3] = system: HIV-1 NL4-3 luciferase reporter virus in primary CD4+ T cells
Procedure: as §1

[4] = system: primary CD4+ T cells
Procedure: as §1

[5] = target: C-terminal FLAG tagged Tat protein (Tat/FLAG), expressed in cells (HIV) (UniProt P04608); test: cell-based or functional assay
[6] = system: histone H3 dimethylated at lysine 4 (in purified total cellular histones)
[7] = target: synthetic Tat protein (aa 1-72), K51 monomethylated (UniProt P04608)

OC[C@H]1O[C@@H](n2cnc3cc(Cl)c(Cl)cc32)[C@H](O)[C@@H]1O [DRB, 5,6-dichloro-1-β-D-ribofuranosyl-1H-benzimidazole]
effect on TNFα-mediated activation of gene expression ([1]; J-Lat A2 cells): prevented TNFα-mediated activation of gene expression in a dose-dependent manner
cell toxicity (PI-negative cells) [2]: No cell toxicity was observed

NNCCc1ccccc1 (racemic) [phenelzine, (±)-2-phenylethylhydrazine]
IC50 ([1]; Human immunodeficiency virus 1, J-Lat A2, read-out: IC50, prevention of TNFα-mediated activation of gene expression (GFP+ cells)): 300 µM
concentrations needed relative to DRB ([1]; J-Lat A2 cells, TNFα-stimulated): ~150 fold
effect on TNFα-mediated activation of gene expression ([1]; J-Lat A2 cells): prevented TNFα-mediated activation of gene expression in a dose-dependent manner
cell toxicity (PI-negative cells) [2]: No cell toxicity was observed
basal expression of luciferase ([3]; nonactivated primary T cells): suppressed the basal expression of luciferase in nonactivated cells
activation of luciferase expression ([3]; primary CD4+ T cells of two donors, α-CD3/α-CD28 stimulation, phenelzine 100-1000 μM): successfully suppressed
suppression of HIV gene expression compared with DRB ([3]; primary T cells): more efficient in suppressing HIV gene expression than DRB
cell viability (PI uptake) [4]: slight decrease in cell viability was observed in one donor

endogenous LSD1/KDM1 (lysine-specific demethylase-1) in cells (from UniProt O60341 1-852) (enzyme)
decrease in Tat transactivation of the HIV LTR luciferase reporter in HeLa cells after LSD1/KDM1 siRNA [5]: 50%

recombinant LSD1/KDM1 (His-tagged, prokaryotic expression)
in vitro demethylation of purified histones, western blot with α-Me2H3K4 [6]: LSD1/KDM1 also demethylated its cognate substrate, dimethyl lysine 4 in histone H3, as expected
in vitro demethylation, western blot with α-Me1K51 Tat antibodies [7]: Recombinant LSD1/KDM1 demethylated synthetic monomethylated Tat in a dose-dependent manner
